Measurements from patent publication US20220378948A1, “METAL-BINDING PEPTIDE, AND USE THEREOF” (The Jikei University, priority 2019, published 2022).

Assay: Adsorption on stent in plasma, fluorescence microscopy
Format: binding
Details: stent immersed in human plasma (37° C., 30 minutes), then 0.5 mM solution
Procedure: Next, in order to analyze the binding ability of the peptide of the present invention and the 4-branched peptide complex to a stent existing in plasma, whether or not the peptide of the present invention also binds to a stent that has been allowed to come into contact with plasma was examined.
That is, a stent was immersed in human plasma (37° C., 30 minutes), and was then removed from the plasma. The stent was then immersed in each peptide solution (0.5 mM) and a 4-branched peptide complex solution (0.5 mM) (37° C., 30 minutes). Thereafter, the stent was sufficiently rinsed with PBS, and was then observed under an upright fluorescence microscope.

For “SEQ ID NO: 9: control peptide that does not bind to a Co—Cr stent; sequence not printed in the text (MKAHHSQLYPRH)”, the “binding to the surface of a stent in human plasma (fluorescence)” value was “does not bind to a Co—Cr stent”.
